Data reported in patent publication US4189604A, “Bestatin” (Zaidan Hojin Biseibutsu Kagaku Kenkyu Kai, priority 1975, dated 1980).
≈ marks a conversion by molar mass, not a printed value.

Key:
[1] = Contraceptive property: antifertility of Bestatin; type: in vivo, ICR JCL female mice
Experimental: (C) Contraceptive property:
Antifertility of Bestatin:
Immediately after subcutaneously administering Bestatin (10 mg./kg.) to ICR JCL female mice at the age of puberty, these mice were placed with male mice of similar line. Female mice which had copulated were killed two days after formulation of vaginal plug and the ova were collected from their uterine tubes so as to examine whether they had been fertilized or not. The fertilized ova were at 8-16 cell period.

aminopeptidase B = target: T1, aminopeptidase B (Rattus norvegicus, UniProt O09175); experiment: Inhibitory activity against aminopeptidase B; type: biochemical
T1 construct: aminopeptidase B solution which is prepared by Sephadex 100 chromatography as described by Hopusu et al; from tissue
T1 sequence (O09175 1-650): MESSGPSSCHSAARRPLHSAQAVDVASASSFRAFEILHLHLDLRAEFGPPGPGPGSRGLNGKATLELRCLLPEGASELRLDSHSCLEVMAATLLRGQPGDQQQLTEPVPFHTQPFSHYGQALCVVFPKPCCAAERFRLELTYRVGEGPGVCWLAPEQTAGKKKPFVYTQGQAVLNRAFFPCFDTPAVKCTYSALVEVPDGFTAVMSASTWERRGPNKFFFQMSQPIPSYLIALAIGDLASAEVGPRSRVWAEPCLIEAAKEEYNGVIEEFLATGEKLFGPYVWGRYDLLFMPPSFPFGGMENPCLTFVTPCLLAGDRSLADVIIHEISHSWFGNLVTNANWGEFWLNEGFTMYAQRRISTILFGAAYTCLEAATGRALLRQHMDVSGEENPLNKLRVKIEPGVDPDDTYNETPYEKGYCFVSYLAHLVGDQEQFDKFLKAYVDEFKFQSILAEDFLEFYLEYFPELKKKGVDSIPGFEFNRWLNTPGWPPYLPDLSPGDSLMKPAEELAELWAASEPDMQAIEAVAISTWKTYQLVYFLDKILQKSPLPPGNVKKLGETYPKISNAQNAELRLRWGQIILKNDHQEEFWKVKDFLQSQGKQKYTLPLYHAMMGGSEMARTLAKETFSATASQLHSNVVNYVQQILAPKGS
Experimental: (A) Inhibitory activity against aminopeptidase B Testing method: The method described by […] in Archives of Biochemistry and Biophysics 114, 557, (1966) was modfied. To the mixture of 0.3 ml. of 1 mM arginine β-naphthylamide and 1.0 Ml. of 0.1 M Tris hydrochloride buffer (pH 7.0), 0.7 Ml. of distilled water with or without a test material is added and warmed at 37° C. for 3 minutes. The reaction is started by addition of 0.2 ml. of aminopeptidase B solution which is prepared by Sephadex 100 chromatography as described by Hopusu et al. […] Fifteen minutes at room temperature thereafter, absorbance (a) at 530 nm is measured by spectrophotometer. […] The inhibition percent is calculated as follows: (b-a)/b×100.

[2] = test system: plaque forming cells in the spleen; experiment: Effect on humoral antibody formation to Sheep Red Blood Cell (SRBC) in mice (JERNE's hemolytic plaque technique); type: in vivo, Mice (dd/y female); conditions: for Antibody Forming Cells Number / Antibody Forming Cells Treated Group / Non-treated Group: intraperitoneal, four days
Experimental: The compound of Example 28 was also tested for its humoral antibody formation to find its efficacy as an immunizing cancer inhibitor. […] For the humoral antibody formation of Bestatin per se see J. Antibiotics, 29(8), 857-859 (August, 1976).
The effect of (2RS,3RS)-3-amino-2-hydroxy-4-hydroxyphenylbutanoyl-(S)-leucine on humoral antibody formation to Sheep Red Blood Cell (SRBC) in mice was studied as follows.
Mice (dd/y female) were immunized by intravenous injection of 10^8 SRBC. Intraperitoneal injection of (2RS,3RS)-3-amino-2-hydroxy-4-hydroxyphenylbutanoyl-(S)-leucine was made soon afterwards.
Four days thereafter the number of plaque forming cells in the spleen were enumerated by JERNE's hemolytic plaque technique [Jerne, N. K.; A. A. Nordin & C. Henry: "The Agar Plaque Technique for Recognizing Antibody-producing Cells" in cell-bound antibodies (Wistar Institute Press, Philadelphia, 1963), pp. 109-122].

[3] = Organ distribution of Bleomycin B2 in the presence of Bestatin; type: in vivo, ICR male mice; conditions: 1 hour, average of 3
Experimental: (B) Organ distribution of Bleomycin in the presence of Bestatin:
100 mg./kg. of Bleomycin B2 was subcutaneously administered to each of three ICR male mice (4 weeks of age) and 100 mg./kg. of Bleomycin B2 and 100 mg./kg. of Bestatin were subcutaneously administered simultaneously to each of three similar mice. These 6 mice were killed one hour after administration and the quantity of Bleomycin B2 remaining in the serum and organs was determined by a thin layer disc method employing Bacillus subtilis PCI219 as the test microorganism. The results are as listed in Table 2, wherein the numerals show average values in mcg./ml.

[4] = BLM 100 mg/kg + BST (Bestatin) 100 mg/kg s.c. simultaneously

In the case of CC(C)C[C@H](NC(=O)[C@@H](O)[C@H](N)Cc1ccccc1)C(=O)O [No. 1, [(2S,3R)-3-amino-2-hydroxy-4-phenylbutanoyl]-L-leucine], the antifertility ([1]; 10 mg./kg. s.c.) is reported as “has an antifertility property”, the “Fertilized ovum (number)” value ([1]; 10 mg./kg. s.c., Female No. 1) is reported as 4 and the “Fertilized ovum (percent)” value ([1]; 10 mg./kg. s.c., Female No. 1) is reported as 40%. For the same compound, the “Non-fertilized ovum (number)” value ([1]; 10 mg./kg. s.c., Female No. 1) was 6, the “Non-fertilized ovum (percent)” value ([1]; 10 mg./kg. s.c., Female No. 1) was 60% and the “Number of collected ovum” value ([1]; 10 mg./kg. s.c., Female No. 1) was 10. For the same compound, the “Number of corpus luteum” value ([1]; 10 mg./kg. s.c., Female No. 1) was 10, the “Fertilized ovum (number)” value ([1]; 10 mg./kg. s.c., Female No. 2) was 6 and the “Fertilized ovum (percent)” value ([1]; 10 mg./kg. s.c., Female No. 2) was 31.6%. For the same compound, the “Non-fertilized ovum (number)” value ([1]; 10 mg./kg. s.c., Female No. 2) was 13, the “Non-fertilized ovum (percent)” value ([1]; 10 mg./kg. s.c., Female No. 2) was 68.4% and the “Number of collected ovum” value ([1]; 10 mg./kg. s.c., Female No. 2) was 19. For the same compound, the “Number of corpus luteum” value ([1]; 10 mg./kg. s.c., Female No. 2) was 19, the “Fertilized ovum (number)” value ([1]; 10 mg./kg. s.c., Total N=2) was 10 and the “Fertilized ovum (percent)” value ([1]; 10 mg./kg. s.c., Total N=2) was 34.5%. The “Non-fertilized ovum (number)” value ([1]; 10 mg./kg. s.c., Total N=2) was 19, the “Non-fertilized ovum (percent)” value ([1]; 10 mg./kg. s.c., Total N=2) was 65.5% and the “Number of collected ovum” value ([1]; 10 mg./kg. s.c., Total N=2) was 29. The “Number of corpus luteum” value ([1]; 10 mg./kg. s.c., Total N=2) was 29, the “fertility of the ova collected” value ([1]; copulated 4-16 hours after administration, control 70%) was 34.5% and the ID50 (aminopeptidase B; Biological Testing table after Example 29) was 0.10 µg/mL (≈ 0.324 µM). For the same compound, the ID50 (aminopeptidase B; pH 7.0, 37° C., 30 minutes, Table 1) was 0.10 µg/mL (≈ 0.324 µM), the “number of antibody forming cells compared with non-treated group” value ([2]; 10 mcg., in words) was “nearly equal to that of non-treated group” and the “Antibody Forming Cells Number” value ([2]; dose 1 mg.) was 190,000±7,100. For the same compound, the “Antibody Forming Cells Treated Group / Non-treated Group” value ([2]; dose 1 mg.) was 1.52, the “Antibody Forming Cells Number” value ([2]; dose 10 mcg.) was 136,250±6,500 and the “Antibody Forming Cells Treated Group / Non-treated Group” value ([2]; dose 10 mcg.) was 1.09.

With Bleomycin B2 [BLM] the “Bleomycin B2 remaining in Brain” value [3, 4] was 2.4 µg/mL, the “Bleomycin B2 remaining in Kidney” value [3, 4] was 84.0 µg/mL and the “Bleomycin B2 remaining in Liver” value [3, 4] was 0 µg/mL. The “Bleomycin B2 remaining in Lung” value [3, 4] was 21.2 µg/mL, the “Bleomycin B2 remaining in Serum” value [3, 4] was 140 µg/mL and the “Bleomycin B2 remaining in Skin” value [3, 4] was 42.0 µg/mL. The “Bleomycin B2 remaining in Spleen” value [3, 4] was 5.8 µg/mL, the “Bleomycin B2 remaining in Stomach” value [3, 4] was 2.5 µg/mL and the “Bleomycin B2 remaining in Brain” value ([3]; BLM 100 mg/kg s.c. alone) was 0 µg/mL. The “Bleomycin B2 remaining in Kidney” value ([3]; BLM 100 mg/kg s.c. alone) was 68.0 µg/mL, the “Bleomycin B2 remaining in Liver” value ([3]; BLM 100 mg/kg s.c. alone) was 0 µg/mL and the “Bleomycin B2 remaining in Lung” value ([3]; BLM 100 mg/kg s.c. alone) was 11.2 µg/mL. For the same compound, the “Bleomycin B2 remaining in Serum” value ([3]; BLM 100 mg/kg s.c. alone) was 110 µg/mL, the “Bleomycin B2 remaining in Skin” value ([3]; BLM 100 mg/kg s.c. alone) was 4.5 µg/mL and the “Bleomycin B2 remaining in Spleen” value ([3]; BLM 100 mg/kg s.c. alone) was 4.0 µg/mL. For the same compound, the “Bleomycin B2 remaining in Stomach” value ([3]; BLM 100 mg/kg s.c. alone) was 1.6 µg/mL.
